These results are taken from paper PMC9444293 (Investigative Radiology, 2022).

Like-named read-outs stand apart in the source and are kept apart here. Marks after values point to notes of the source that are not given here.

The format of data set [1] is physicochemical. The conditions noted are these: 37°C, pH 7.4, 21 days, LLOQ 0.1 nmol Gd/g.
The conditions of data set [2]: ref Szomolanyi et al, 23; cited from earlier work.
Data set [3] is classed as physicochemical. Conditions: after 3 days.
The nature of a further data set: Partition coefficient. The conditions noted are these: pH 7.4, room temperature. It counts as physicochemical.
The conditions of data set [4]: rat.
For data set [5] the following is noted: market formulation; ref Port et al, 24; cited from earlier work.
The conditions of data set [6]: IV 0.1 mmol Gd/kg bw.
For data set [7] the following is noted: formulation; ref Port et al, 24; cited from earlier work.
For data set [8] the following is noted: cited from earlier work.
Data set [9] in a line: Number of inner sphere water molecules. Conditions: per Gd. The class given is physicochemical.
The conditions of data set [10]: ref Port et al, 24; cited from earlier work.
The conditions of data set [11]: pH 7.4; cited from earlier work.
Where [12] appears, read: 7 days after single IV 0.1 mmol Gd/kg bw.
Where [13] appears, read: 7 days after single IV 0.1 mmol Gd/kg bw, LLOQ 0.05.

As for `O=C([O-])CN1CCN(CC(=O)[O-])CCN([C@H](CO)[C@H](O)CO)CCN(CC(=O)[O-])CC1.[Gd+3]` (racemic) [Gadobutrol, gadobutrol, reference compound], in data set [1], the “Gd release after 21 days in human serum (below LLOQ)” value is listed as less than 0.1 nmol Gd/g. Moreover, in data set [2], the “r1-Relaxivity in Human Plasma at 37°C, 3.0 T” value (“r1-Relaxivity … 3.0 T” below) is given as 5.0 ± 0.6§ mM^−1 s^−1. For the same compound, the “Decrease of the T1 relaxation rates (R1) in zinc transmetallation assay” value (shortened to “Decrease of the T1 relaxation rates (R1)”) in [3] is “no change”. Also, the “Log P (1-Butanol/Buffer)” value in the data set “Partition coefficient” is on record as −2.22. In data set [4] (setting [12]), the “Gadolinium concentration, Bone marrow” value is listed as 0.628 ± 0.420 nmol Gd/g wet tissue; the “Gadolinium concentration, Carcass” value is 0.590 ± 0.162 nmol Gd/g wet tissue; the “Gadolinium concentration, Heart” value is recorded as 0.127 ± 0.004 nmol Gd/g wet tissue; the “Gadolinium concentration, Intestine” value turned out to be 0.453 ± 0.233 nmol Gd/g wet tissue. In data set [4] (setting [12]), the “Gadolinium concentration, Kidney” value is 19.6 ± 1.47 nmol Gd/g wet tissue; the “Gadolinium concentration, Liver” value is 0.312 ± 0.054 nmol Gd/g wet tissue; the “Gadolinium concentration, Lung” value was determined as 0.218 ± 0.046 nmol Gd/g wet tissue; the “Gadolinium concentration, Mesenterial lymph nodes” value came to 0.631 ± 0.113 nmol Gd/g wet tissue. Further, in data set [4] (setting [12]), the “Gadolinium concentration, Muscle” value is listed as 0.074 ± 0.013 nmol Gd/g wet tissue; the “Gadolinium concentration, Skin” value was 0.202 ± 0.057 nmol Gd/g wet tissue; the “Gadolinium concentration, Spleen” value is 0.382 ± 0.101 nmol Gd/g wet tissue; the “Gadolinium concentration, Stomach” value amounted to 0.155 ± 0.010 nmol Gd/g wet tissue. Also, in data set [4] (setting [13]), the “Gadolinium concentration, Blood” value is reported as <0.05* nmol Gd/g wet tissue and the “Gadolinium concentration, Brain” value was <0.05* nmol Gd/g wet tissue. Besides, the “Gadolinium concentration, Bone” value in data set [4] (femur, 7 days after single IV 0.1 mmol Gd/kg bw) was found to be 1.013 ± 0.767 nmol Gd/g wet tissue. Also, in data set [4] (in vivo, iv), the “Amount of Gd recovered in Feces, 0–5 d” value is 1.44% ± 1.2%; the “Amount of Gd recovered in Urine, 0–1 d” value is reported as 99.2% ± 1.5%; the “Amount of Gd recovered in Urine, 0–5 d” value is given as 100% ± 1.6%; the “Total recovery of Gd, 0–7 d” value was 102% ± 4.1%. Besides, in data set [5], the “Osmolality at 37°C” value is 1603∥ mosmol/kg H2O. Moreover, in data set [6] (rat plasma), the “AUC^∞” value is recorded as 234 ± 10 (4.3%) μmol·h/L and the γ-AUC is recorded as 1.1 % of AUC^∞. Further, the γ-AUC in data set [6] (rat plasma, listed as gadobutrol) was 1 % of AUC^∞. Moreover, in data set [6] (rat), the Clplasma is 0.43 ± 0.02 (4.3%) L/h/kg and the Vss was 0.29 ± 0.03 (9.1%) L/kg. Besides, in data set [6] (rat, 3-compartment model), the “β t1/2” value is reported as 22 ± 0.69 (3.2%) min and the “γ t1/2” value is 13 ± 2.0 (16%) h. In data set [6] (rat, 3-compartment model, mean estimate ± SD (CV%)), the “α t1/2” value is listed as 2.5 ± 1.1 (42%) min. The “Viscosity at 37°C” value in data set [7] is listed as 5.0∥ mPa·s. In addition, the “r1-Relaxivity in Human Plasma at 37°C, 1.5 T” value (“r1-Relaxivity … 1.5 T” below) in data set [8] (ref Szomolanyi et al, 23, listed as gadobutrol) is 4.8 mM⁻¹ s⁻¹. Moreover, the “r1-Relaxivity … 1.5 T” value in data set [8] (ref Szomolanyi et al, 23) is 4.8 ± 0.1§ mM^−1 s^−1. Also, the “No. Inner Sphere Water Molecules (q)” value in data set [9] was “q = 1”.
Consider `CNC[C@H](O)[C@@H](O)[C@H](O)[C@H](O)CO.CNC[C@H](O)[C@@H](O)[C@H](O)[C@H](O)CO.O=C([O-])CN(CCN(CC(=O)[O-])CC(=O)O)CCN(CC(=O)[O-])CC(=O)O.[Gd+3]` [Gadopentetate dimeglumine, gadopentetate dimeglumine], for which the “Decrease of the T1 relaxation rates (R1)” value in data set [3] is recorded as 66%.
Regarding `CNC[C@H](O)[C@@H](O)[C@H](O)[C@H](O)CO.O=C([O-])CN1CCN(CC(=O)[O-])CCN(CC(=O)O)CCN(CC(=O)[O-])CC1.[Gd+3]` [Gadoterate meglumine, gadoterate meglumine], the “r1-Relaxivity … 3.0 T” value in data set [2] is recorded as 3.0 ± 0.1§ mM^−1 s^−1. For the same compound, the “Decrease of the T1 relaxation rates (R1)” value in [3] is on record as “no change”. In data set [5], the “Osmolality at 37°C” value is reported as 1350∥ mosmol/kg H2O. Besides, the “Viscosity at 37°C” value in data set [7] is reported as 2.0∥ mPa·s. The “r1-Relaxivity … 1.5 T” value in [8] (ref Szomolanyi et al, 23, listed as gadoterate meglumine) is 3.3 mM⁻¹ s⁻¹; in data set [8] (ref Szomolanyi et al, 23), 3.3 ± 0.1§ mM^−1 s^−1. In addition, the “Log P (1-Butanol/Buffer)” value in data set [10] is −2.87∥. In [9], the “No. Inner Sphere Water Molecules (q)” value was “q = 1”.
Take `CC(O)CN1CCN(CC(=O)[O-])CCN(CC(=O)[O-])CCN(CC(=O)[O-])CC1.[Gd+3]` (centres unmarked) [Gadoteridol]: the “r1-Relaxivity … 3.0 T” value in data set [2] is 3.3 ± 0.1§ mM^−1 s^−1. Moreover, the “Osmolality at 37°C” value in [5] was 630∥ mosmol/kg H2O. Also, the “Viscosity at 37°C” value in data set [7] is given as 1.3∥ mPa·s. In addition, in [8] (ref Szomolanyi et al, 23), the “r1-Relaxivity … 1.5 T” value is on record as 3.8 ± 0.1§ mM^−1 s^−1. Besides, in [10], the “Log P (1-Butanol/Buffer)” value is −1.98∥. Besides, the “No. Inner Sphere Water Molecules (q)” value in [9] was “q = 1”.
On to Gadopiclenol, for which the “log Kcond” value in data set [11] is 15.5.
On to Gd-PCTA, for which the “log Kcond” value in data set [11] is given as 15.5.
